Assay results published in PMC6433232, “Targeting mitochondria in cancer therapy could provide a basis for the selective anti-cancer activity” (PLoS ONE, 2019).
“And” between values parts separate entries of the source, which are not always exact repeats. Identical values can stand only once.

system: primary acute myeloid leukemia (AML) cells obtained from patients; assay: Kinase inhibitor library screening with and without NSC130362, primary AML cells; format: cell-based, Human; conditions: not given

Molecule	EC50 decrease, fold (Screen N 1)	EC50 decrease, fold (Screen N 2) [fold]	EC50 decrease, fold (Screen N 3) [fold]
C[C@@H](Oc1cc(-c2cnn(C3CCNCC3)c2)cnc1N)c1c(Cl)ccc(F)c1Cl [Crizotinib (PF-2341066)]	11.4 fold and 6.3 fold	1.0	
CN(C)C/C=C/C(=O)Nc1cc2c(Nc3ccc(F)c(Cl)c3)ncnc2cc1O[C@H]1CCOC1 [Afatinib (BIBW-2992)]	0.5 fold	1.2	18.4

same assay, conditions: ratio of EC50 for inhibitor to EC50 for inhibitor/NSC130362 combination; NSC130362 10 μM; Screen N 1

EC50 decrease, fold (Screen N 1) [fold]	Molecule
1.2	Cc1ccc2nc(NCCN)c3ncc(C)n3c2c1 [BMS-345541]
8.1	NC(=O)c1cnc(N[C@@H]2CCCC[C@@H]2N)nc1Nc1cccc(-n2nccn2)c1 [PRT062607]
7.6	Cn1cc(-c2ccc3nnc(C(F)(F)c4ccc5ncccc5c4)n3n2)cn1 [JNJ-38877605]
6.5	Oc1nc(-c2ccc(C(F)(F)F)cc2)nc2c1CSCC2 [XAV-939]
0.3	CN(C)CC(=O)N1CCC(c2ccc(NC(=O)c3nc(C#N)c[nH]3)c(C3=CCCCC3)c2)CC1 [JNJ-28312141]
1.6	Cn1cc(-c2ccc3nnc(Sc4ccc5ncccc5c4)n3n2)cn1 [SGX-523]

Continued, molecule first:

Molecule	EC50 decrease, fold (Screen N 1) [fold]
CCOc1cc2ncc(C#N)c(Nc3ccc(OCc4ccccn4)c(Cl)c3)c2cc1NC(=O)/C=C/CN(C)C [Neratinib (HKI-272)]	5.7
CC[C@@H]1C(=O)N(C)c2cnc(Nc3ccc(C(=O)N[C@H]4CC[C@H](N5CCN(CC6CC6)CC5)CC4)cc3OC)nc2N1C(C)C [Volasertib (BI-6727)]	0.2
O=c1ncn2nc(Sc3ccc(F)cc3F)ccc2c1-c1c(Cl)cccc1Cl [VX-745]	2.9
Nc1ncnc2c1c(-c1cccc(OCc3ccccc3)c1)cn2C1CC(CN2CCCC2)C1 (stereo not shown) [NVP-ADW742]	3.1
NF-kB Activation Inhibitor	11.2
CS(=O)(=O)c1ccc(C(=O)Nc2ccc(Cl)c(-c3ccccn3)c2)c(Cl)c1 [Vismodegib (GDC-0449)]	1.0
Cc1ccc(-n2nc(C(C)(C)C)cc2NC(=O)Nc2ccc(OCCN3CCOCC3)c3ccccc23)cc1 [Doramapimod (BIRB 796)]	0.15
Cn1cnc2c(F)c(Nc3ccc(Br)cc3Cl)c(C(=O)NOCCO)cc21 [Selumetinib (AZD6244)]	6.5
COc1cc2nccc(Oc3ccc(NC(=O)NC4CC4)c(Cl)c3)c2cc1C(N)=O [Lenvatinib]	1.9
COc1cc2/c(=N/c3ccc(Br)cc3F)nc[nH]c2cc1OCC1CCN(C)CC1 [Vandetanib (ZD6474)]	0.5
Nc1nc(N)c2nc(-c3cccc(O)c3)c(-c3cccc(O)c3)nc2n1 [TG100-115]	1.8
CCN(CCO)CCCOc1ccc2c(Nc3cc(CC(=O)Nc4cccc(F)c4)[nH]n3)ncnc2c1 [Barasertib (AZD1152-HQPA)]	1.0
COc1ccc(C2=N[C@@H](c3ccc(Cl)cc3)[C@@H](c3ccc(Cl)cc3)N2C(=O)N2CCNC(=O)C2)c(OC(C)C)c1 [Nutlin 3a]	0.1
CN(C)CC[C@H](CSc1ccccc1)Nc1ccc(S(=O)(=O)NC(=O)c2ccc(N3CCN(Cc4ccccc4-c4ccc(Cl)cc4)CC3)cc2)cc1[N+](=O)[O-] [ABT-737]	5.4

same assay, conditions: ratio of EC50 for inhibitor to EC50 for inhibitor/NSC130362 combination; NSC130362 10 μM; Screen N 2

EC50 decrease, fold (Screen N 2) [fold]	Molecule
1.0	Cc1ccc2nc(NCCN)c3ncc(C)n3c2c1 [BMS-345541]
1.0	NC(=O)c1cnc(N[C@@H]2CCCC[C@@H]2N)nc1Nc1cccc(-n2nccn2)c1 [PRT062607]
1.0	Cn1cc(-c2ccc3nnc(C(F)(F)c4ccc5ncccc5c4)n3n2)cn1 [JNJ-38877605]
1.0	Oc1nc(-c2ccc(C(F)(F)F)cc2)nc2c1CSCC2 [XAV-939]
1.0	CN(C)CC(=O)N1CCC(c2ccc(NC(=O)c3nc(C#N)c[nH]3)c(C3=CCCCC3)c2)CC1 [JNJ-28312141]
1.0	Cn1cc(-c2ccc3nnc(Sc4ccc5ncccc5c4)n3n2)cn1 [SGX-523]

Second part, the molecule before the results:

Molecule	EC50 decrease, fold (Screen N 2) [fold]
CCOc1cc2ncc(C#N)c(Nc3ccc(OCc4ccccn4)c(Cl)c3)c2cc1NC(=O)/C=C/CN(C)C [Neratinib (HKI-272)]	1.0
CC[C@@H]1C(=O)N(C)c2cnc(Nc3ccc(C(=O)N[C@H]4CC[C@H](N5CCN(CC6CC6)CC5)CC4)cc3OC)nc2N1C(C)C [Volasertib (BI-6727)]	0.4
O=c1ncn2nc(Sc3ccc(F)cc3F)ccc2c1-c1c(Cl)cccc1Cl [VX-745]	1.0
Nc1ncnc2c1c(-c1cccc(OCc3ccccc3)c1)cn2C1CC(CN2CCCC2)C1 (stereo not shown) [NVP-ADW742]	1.0
NF-kB Activation Inhibitor	1.0
CS(=O)(=O)c1ccc(C(=O)Nc2ccc(Cl)c(-c3ccccn3)c2)c(Cl)c1 [Vismodegib (GDC-0449)]	1.0
Cc1ccc(-n2nc(C(C)(C)C)cc2NC(=O)Nc2ccc(OCCN3CCOCC3)c3ccccc23)cc1 [Doramapimod (BIRB 796)]	1.0
Cn1cnc2c(F)c(Nc3ccc(Br)cc3Cl)c(C(=O)NOCCO)cc21 [Selumetinib (AZD6244)]	1.5
COc1cc2nccc(Oc3ccc(NC(=O)NC4CC4)c(Cl)c3)c2cc1C(N)=O [Lenvatinib]	1.0
COc1cc2/c(=N/c3ccc(Br)cc3F)nc[nH]c2cc1OCC1CCN(C)CC1 [Vandetanib (ZD6474)]	1.0
Nc1nc(N)c2nc(-c3cccc(O)c3)c(-c3cccc(O)c3)nc2n1 [TG100-115]	1.0
CCN(CCO)CCCOc1ccc2c(Nc3cc(CC(=O)Nc4cccc(F)c4)[nH]n3)ncnc2c1 [Barasertib (AZD1152-HQPA)]	1.0
COc1ccc(C2=N[C@@H](c3ccc(Cl)cc3)[C@@H](c3ccc(Cl)cc3)N2C(=O)N2CCNC(=O)C2)c(OC(C)C)c1 [Nutlin 3a]	1.0
CN(C)CC[C@H](CSc1ccccc1)Nc1ccc(S(=O)(=O)NC(=O)c2ccc(N3CCN(Cc4ccccc4-c4ccc(Cl)cc4)CC3)cc2)cc1[N+](=O)[O-] [ABT-737]	1.0

same assay, conditions: ratio of EC50 for inhibitor to EC50 for inhibitor/NSC130362 combination; NSC130362 10 μM; Screen N 3

EC50 decrease, fold (Screen N 3) [fold]	Molecule
0.01	Cc1ccc2nc(NCCN)c3ncc(C)n3c2c1 [BMS-345541]
265.0	NC(=O)c1cnc(N[C@@H]2CCCC[C@@H]2N)nc1Nc1cccc(-n2nccn2)c1 [PRT062607]
0.00829	Cn1cc(-c2ccc3nnc(C(F)(F)c4ccc5ncccc5c4)n3n2)cn1 [JNJ-38877605]
1.0	Oc1nc(-c2ccc(C(F)(F)F)cc2)nc2c1CSCC2 [XAV-939]
2.3	CN(C)CC(=O)N1CCC(c2ccc(NC(=O)c3nc(C#N)c[nH]3)c(C3=CCCCC3)c2)CC1 [JNJ-28312141]
66.4	Cn1cc(-c2ccc3nnc(Sc4ccc5ncccc5c4)n3n2)cn1 [SGX-523]

Second part, the molecule before the results:

Molecule	EC50 decrease, fold (Screen N 3) [fold]
CCOc1cc2ncc(C#N)c(Nc3ccc(OCc4ccccn4)c(Cl)c3)c2cc1NC(=O)/C=C/CN(C)C [Neratinib (HKI-272)]	1.0
CC[C@@H]1C(=O)N(C)c2cnc(Nc3ccc(C(=O)N[C@H]4CC[C@H](N5CCN(CC6CC6)CC5)CC4)cc3OC)nc2N1C(C)C [Volasertib (BI-6727)]	68.5
O=c1ncn2nc(Sc3ccc(F)cc3F)ccc2c1-c1c(Cl)cccc1Cl [VX-745]	0.0543
Nc1ncnc2c1c(-c1cccc(OCc3ccccc3)c1)cn2C1CC(CN2CCCC2)C1 (stereo not shown) [NVP-ADW742]	1.0
NF-kB Activation Inhibitor	0.0602
CS(=O)(=O)c1ccc(C(=O)Nc2ccc(Cl)c(-c3ccccn3)c2)c(Cl)c1 [Vismodegib (GDC-0449)]	1.0
Cc1ccc(-n2nc(C(C)(C)C)cc2NC(=O)Nc2ccc(OCCN3CCOCC3)c3ccccc23)cc1 [Doramapimod (BIRB 796)]	511.2
Cn1cnc2c(F)c(Nc3ccc(Br)cc3Cl)c(C(=O)NOCCO)cc21 [Selumetinib (AZD6244)]	1.0
COc1cc2nccc(Oc3ccc(NC(=O)NC4CC4)c(Cl)c3)c2cc1C(N)=O [Lenvatinib]	1.5
Nc1nc(N)c2nc(-c3cccc(O)c3)c(-c3cccc(O)c3)nc2n1 [TG100-115]	1.0
CCN(CCO)CCCOc1ccc2c(Nc3cc(CC(=O)Nc4cccc(F)c4)[nH]n3)ncnc2c1 [Barasertib (AZD1152-HQPA)]	642.8
COc1ccc(C2=N[C@@H](c3ccc(Cl)cc3)[C@@H](c3ccc(Cl)cc3)N2C(=O)N2CCNC(=O)C2)c(OC(C)C)c1 [Nutlin 3a]	0.9
CN(C)CC[C@H](CSc1ccccc1)Nc1ccc(S(=O)(=O)NC(=O)c2ccc(N3CCN(Cc4ccccc4-c4ccc(Cl)cc4)CC3)cc2)cc1[N+](=O)[O-] [ABT-737]	0.000857
